Among the data in ChEMBL document CHEMBL1127361, “Polyacrylamides bearing pendant alpha-sialoside groups strongly inhibit agglutination of erythrocytes by influenza A virus: multivalency and steric stabilization of particulate biological systems” (J Med Chem, 1994) are Ki values, retold here.

This assay is described as follows: Tested for inhibition of hemagglutinination in chicken red blood cell (RBC). The class given is functional, Gallus gallus.

Numbered stars: 1 amine (or outer) side, 2 acyl side, 3 side chain; on linkers, the order of the positions; unused ones are H or OH. Square brackets hold non-standard residues; d marks the D form. Peptide text beside a SMILES is read from it. * marks the point of attachment. X1 = O=C(O)C1(OCCCCC(=O)[*:2])CC(O)C(N[*:1])C([C@@H](O)[C@H](O)CO)O1; NH(1-naphthylmethyl) = c1ccc2c(CN*)cccc2c1

In the case of `C=CC(=O)NOCCCOCCCCOC1(C(N)=O)CC(O)C(NC(C)=O)C([C@@H](O)[C@H](O)CO)O1` (some centres undefined), the Ki was above 600 µM.

In turn, `COC(=O)C1(OC)CC(O)C(NC(C)=O)C([C@@H](O)[C@H](O)CO)O1` (some centres undefined) registered a Ki of 14000 µM.

For the compound `C=CC(=O)NCCCOCCCCOC1(C(=O)O)CC(O)C(NC(C)=O)C([C@@H](O)[C@H](O)CO)O1` (some centres undefined), the Ki was found to be 1000 µM.

Consider `CC(=O)NC1C(OC(=O)CNS(=O)(=O)c2cccc3c(N(C)C)cccc23)CC(OCCCCCCC(=O)NCc2cccc3ccccc23)(C(=O)O)OC1[C@@H](O)[C@H](O)CO` (some centres undefined), for which the Ki is 3 µM.

As to `COC1(C(=O)O)CC(O)C(NC(C)=O)C([C@@H](O)C(O)O)O1` (some centres undefined), the affinity corresponds to a Ki of 2500 µM.

`C=CC(=O)NOCCCOCCCCOC1(C(C)=O)CC(O)C(NC(C)=O)C([C@@H](O)[C@H](O)CO)O1` (some centres undefined) yielded a Ki above 600 µM.

`C=CC(=O)NOCCCOCCCCOC1(C(=O)O)CC(O)C(NC(C)=O)C([C@@H](O)[C@H](O)CO)O1` (some centres undefined) returned a Ki of 0.3 µM.

In turn, `COC1(C(=O)O)CC(O)C(NC(C)=O)C([C@@H](O)[C@H](O)CO)O1` (some centres undefined) displayed a Ki of 2500 µM.

The compound `CC(=O)NC1C(O)CC(OCCCCC(=O)NCC(=O)NCC(=O)NCC(=O)NCC(=O)NCc2cccc3ccccc23)(C(=O)O)OC1[C@@H](O)[C@H](O)CO` (some centres undefined) (Ac-[X1]GGGG-{NH(1-naphthylmethyl)}) displayed a Ki of 30 µM.

For orientation: Ki means a dissociation constant, usually derived from enzyme kinetics or from competition with a known ligand. Read a high Ki as a looser hold on the target.
